Patent US8173813B2, “Quinolone and tetrahydroquinolone and related compounds having NOS inhibitory activity” (NeurAxon, Inc., priority 2007, dated 2012)
Where two headings read alike, the source gives them in different places. Blank lines part the entries; values can stand above or below the compound they belong to.

What was measured:
[1] = test system: Male, Sprague Dawley rats; experiment: Porreca model of allodynia (inflammatory soup onto the dura, hindpaw von Frey); assay type: in vivo, rat
[2] = biological target: Nitric oxide synthase (endothelial, human recombinant) eNOS (Homo sapiens, UniProt P29474); experiment: Human eNOS enzyme assay ([3H]L-arginine to [3H]L-citrulline); assay type: biochemical; conditions: read-out: heNOS IC50
nNOS (Rat) = nNOS (Rat) (Rattus norvegicus, UniProt P29476); experiment: nNOS (Rat) enzyme assay; assay type: biochemical; conditions: values in parentheses
Method: (§1) nNOS (Rat), eNOS (Rat) and iNOS (Mouse) Enzyme Assay Recombinant rat or mouse NO synthases (iNOS, eNOS, nNOS) were expressed in Sf9 cells (Sigma), 36 mg prot/ml (Bradford). […] Inhibition of NOS was determined by measuring the formation of L-[3H] citrulline from L-[3H] arginine. […] Stop buffer:100 mM Hepes, pH 5.5, 3 mM EDTA, 3 mM EGTA.

[3] = test system: Rats with L5/L6 spinal nerve ligation; experiment: Chung Spinal Nerve Ligation model, thermal hyperalgesia; assay type: in vivo, rat; conditions: standard dosings 3, 10, and 30 mg/kg injected IP
eNOS (Rat) = eNOS (Rat) (Rattus norvegicus, UniProt Q62600); experiment: eNOS (Rat) enzyme assay; assay type: biochemical; conditions: values in parentheses, read-out: eNOS IC50 (rodent data in parentheses)
[4] = biological target: Recombinant human inducible NOS (iNOS) (Homo sapiens, UniProt P35228); experiment: Human iNOS enzyme assay, radiometric; assay type: biochemical; conditions: read-out: hiNOS IC50
[5] = test system: Rats with L5/L6 spinal nerve ligation; experiment: Chung Spinal Nerve Ligation model, tactile allodynia; assay type: in vivo, rat; conditions: standard dosings 3, 10, and 30 mg/kg injected IP
[6] = biological target: Nitric oxide synthase (neuronal, human recombinant) nNOS (Homo sapiens, UniProt P29475); experiment: Human nNOS enzyme assay ([3H]L-arginine to [3H]L-citrulline); assay type: biochemical; conditions: for IC50: read-out: hnNOS IC50
iNOS (Mouse) = iNOS (Mouse) (Mus musculus, UniProt P29477); experiment: iNOS (Mouse) enzyme assay; assay type: biochemical; conditions: values in parentheses, read-out: iNOS IC50 (rodent data in parentheses)
Method: as §1, with “EGTA. Enzyme and inhibitor were pre-incubated for 35 min in the presence of NADPH before addition of arginine to initiate the reaction.” for “EGTA.”

[7] = test system: sciatic nerve cuff-implanted rats; experiment: Sciatic Nerve Cuff model, mechanical allodynia (von Frey hair); assay type: in vivo, rat; conditions: i.p 30 mg/kg
Method: The Sciatic Nerve Cuff model in rats (Mosconi and Kruger, 1996, Pain 64, 37-57) involves implantation of a plastic cuff around the sciatic nerve that results in painful neuropathy several days after surgery and induction of nociceptive afterdischarge in spinal neurons after innocuous peripheral mechanical stimulation (G. M. Pitcher and J. L. Henry). Mechanical allodynia is measured in the ipsilateral paw using calibrated von Frey hair testing. A single acute application of the drug (i.p. dosing) reverses the post-cuff pain thresholds to mechanical stimulus towards normal threshold levels.
The study utilized a cuff model (Mosconi T, Kruger L. Fixed-diameter polyethylene cuffs applied to the rat sciatic nerve induce a painful neuropathy: ultrastructural morphometric analysis of axonal alterations. Pain 64: 37-57, 1996) to examine the therapeutic effectiveness of the test compound 11 on a battery of behavioural endpoints in rats.
The testing chamber consists of a 30×30×30 cm Plexiglas box with a clear Plexiglas floor. This floor contained 0.5 cm diameter holes that are spaced 1.5 cm apart, and is positioned over a mirror, which allows an unobstructed view of the rat paws. Animals are placed in the testing chamber and allowed to acclimatize for 30 min prior to testing. von Frey filaments (Stoelting Co., Illinois, USA) are applied to the soft tissue of the plantar surface of the hind paw to determine the withdrawal threshold. The first filament applied corresponds to a force of 4.31 grams. […] A 50% response threshold is calculated according to the response pattern observed (described by Chaplan et al. 1994). […]
A baseline reading with von Frey hairs is taken before model induction. Thus rats are acclimatized to the testing chamber and readings are taken for at least three days for the baseline before any surgery. After the surgery von Frey hair testing for any development of mechanical sensitivity is assessed. […]

[8] = test system: sciatic nerve cuff-implanted rats; experiment: Sciatic Nerve Cuff model, cold plate test (paw lifts); assay type: in vivo, rat; conditions: daily i.p. 30 mg/kg; cold plate 4±2° C.; 10-minute test period; average
Source text: The animal will be placed into a box of approximately 12×12×12 inches. The bottom is filled with an ice-saline mixture and a metal plate is placed just on top of this mixture. […]
[…] Post-testing treatment—the feet will be wiped with a soft cloth or paper towel and the animal will be placed back in its home cage for five minutes. An allowance will be made for the time necessary to transfer to as well as adaptation to the next testing apparatus.
The method of inducing peripheral neuropathy is by implantation of a single cuff around the sciatic nerve, modified from the method described by Mosconi and Kruger (1996), where two to four cuffs were used. Rats are anaesthetized with a combination of ketamine (5 mg/100 g) and xylazine (0.5 mg/100 g), i.p. The left sciatic nerve is exposed after blunt dissection of overlying muscle and freed from surrounding tissue. A cuff made of a 2 mm segment of polyethylene (PE-90) tubing (Intramedic PE-90, Clay Adams, Division of Becton Dickinson, Parsippany, N.J.) slit longitudinally is fit around the nerve. Subsequently the muscle is sutured, and skin closed using suture clips. Antibiotic ointment (Nitrofurazone 0.2%) is applied over the wound, and 0.03 ml of the antibiotic Tribrissen 24% (trimethoprim-sulfadiazine) is injected subcutaneously. […]

[9] = test system: sciatic nerve cuff-implanted rats; experiment: Sciatic Nerve Cuff model, hind leg weight bearing; assay type: in vivo, rat
Method: The method of inducing peripheral neuropathy is by implantation of a single cuff around the sciatic nerve, modified from the method described by Mosconi and Kruger (1996), where two to four cuffs were used. Rats are anaesthetized with a combination of ketamine (5 mg/100 g) and xylazine (0.5 mg/100 g), i.p. The left sciatic nerve is exposed after blunt dissection of overlying muscle and freed from surrounding tissue. A cuff made of a 2 mm segment of polyethylene (PE-90) tubing (Intramedic PE-90, Clay Adams, Division of Becton Dickinson, Parsippany, N.J.) slit longitudinally is fit around the nerve. Subsequently the muscle is sutured, and skin closed using suture clips. Antibiotic ointment (Nitrofurazone 0.2%) is applied over the wound, and 0.03 ml of the antibiotic Tribrissen 24% (trimethoprim-sulfadiazine) is injected subcutaneously. Animals are placed under a heating lamp until they recovered from the anaesthetic and then returned to their home cage.

[10] = test system: patients with cardiogenic shock; conditions: randomized trial of 30 patients; reduced from 67%; cited from earlier work
migraine patients [11] = conditions: human migraine; single i.v. administration; cited from earlier work
[12] = test system: patients with persistent shock; conditions: 11 patients with persistent shock; up to 30 days; cited from earlier work
migraine patients [13] = conditions: human migraine; open pilot study; cited from earlier work
[14] = human recombinant eNOS, values without parentheses
[15] = human recombinant nNOS, values without parentheses

Nitric oxide synthase (neuronal, human recombinant) nNOS, sequence (P29475 whole entry): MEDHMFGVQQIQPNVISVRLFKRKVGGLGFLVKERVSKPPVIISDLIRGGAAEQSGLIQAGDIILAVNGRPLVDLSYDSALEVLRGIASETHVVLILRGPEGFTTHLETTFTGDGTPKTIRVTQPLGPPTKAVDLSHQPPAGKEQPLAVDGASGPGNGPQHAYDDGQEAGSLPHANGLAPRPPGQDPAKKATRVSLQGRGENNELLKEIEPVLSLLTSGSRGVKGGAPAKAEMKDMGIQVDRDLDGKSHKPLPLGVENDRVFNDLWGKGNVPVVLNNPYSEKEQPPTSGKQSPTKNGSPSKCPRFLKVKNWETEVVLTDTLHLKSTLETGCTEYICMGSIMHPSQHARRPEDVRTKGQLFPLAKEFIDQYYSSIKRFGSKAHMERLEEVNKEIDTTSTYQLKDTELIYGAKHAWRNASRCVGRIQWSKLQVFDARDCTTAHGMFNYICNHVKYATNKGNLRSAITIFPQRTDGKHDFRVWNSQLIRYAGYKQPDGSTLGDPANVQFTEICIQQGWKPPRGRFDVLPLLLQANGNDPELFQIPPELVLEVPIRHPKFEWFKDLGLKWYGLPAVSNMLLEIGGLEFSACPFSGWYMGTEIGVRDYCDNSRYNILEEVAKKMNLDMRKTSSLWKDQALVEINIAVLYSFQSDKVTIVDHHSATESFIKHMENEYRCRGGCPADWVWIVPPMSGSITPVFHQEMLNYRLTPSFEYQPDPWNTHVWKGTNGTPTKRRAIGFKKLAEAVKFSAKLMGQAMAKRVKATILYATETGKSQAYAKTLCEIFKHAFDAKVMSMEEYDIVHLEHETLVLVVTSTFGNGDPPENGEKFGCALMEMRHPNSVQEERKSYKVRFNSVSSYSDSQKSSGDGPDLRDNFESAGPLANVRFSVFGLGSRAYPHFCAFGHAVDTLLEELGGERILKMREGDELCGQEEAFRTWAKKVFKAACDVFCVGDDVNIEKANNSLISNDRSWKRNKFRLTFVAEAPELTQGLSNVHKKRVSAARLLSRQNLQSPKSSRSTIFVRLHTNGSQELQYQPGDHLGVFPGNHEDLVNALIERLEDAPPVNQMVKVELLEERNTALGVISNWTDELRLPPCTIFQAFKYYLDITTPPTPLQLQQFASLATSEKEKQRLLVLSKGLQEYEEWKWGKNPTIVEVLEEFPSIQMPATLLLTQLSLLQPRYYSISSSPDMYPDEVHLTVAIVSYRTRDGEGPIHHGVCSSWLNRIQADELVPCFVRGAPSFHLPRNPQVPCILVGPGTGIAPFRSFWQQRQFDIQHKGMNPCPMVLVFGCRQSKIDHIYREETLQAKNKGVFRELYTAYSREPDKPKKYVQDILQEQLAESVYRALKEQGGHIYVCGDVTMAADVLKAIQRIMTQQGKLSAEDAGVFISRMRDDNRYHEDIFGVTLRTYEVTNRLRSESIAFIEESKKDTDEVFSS
Nitric oxide synthase (endothelial, human recombinant) eNOS, sequence (P29474 2-1203): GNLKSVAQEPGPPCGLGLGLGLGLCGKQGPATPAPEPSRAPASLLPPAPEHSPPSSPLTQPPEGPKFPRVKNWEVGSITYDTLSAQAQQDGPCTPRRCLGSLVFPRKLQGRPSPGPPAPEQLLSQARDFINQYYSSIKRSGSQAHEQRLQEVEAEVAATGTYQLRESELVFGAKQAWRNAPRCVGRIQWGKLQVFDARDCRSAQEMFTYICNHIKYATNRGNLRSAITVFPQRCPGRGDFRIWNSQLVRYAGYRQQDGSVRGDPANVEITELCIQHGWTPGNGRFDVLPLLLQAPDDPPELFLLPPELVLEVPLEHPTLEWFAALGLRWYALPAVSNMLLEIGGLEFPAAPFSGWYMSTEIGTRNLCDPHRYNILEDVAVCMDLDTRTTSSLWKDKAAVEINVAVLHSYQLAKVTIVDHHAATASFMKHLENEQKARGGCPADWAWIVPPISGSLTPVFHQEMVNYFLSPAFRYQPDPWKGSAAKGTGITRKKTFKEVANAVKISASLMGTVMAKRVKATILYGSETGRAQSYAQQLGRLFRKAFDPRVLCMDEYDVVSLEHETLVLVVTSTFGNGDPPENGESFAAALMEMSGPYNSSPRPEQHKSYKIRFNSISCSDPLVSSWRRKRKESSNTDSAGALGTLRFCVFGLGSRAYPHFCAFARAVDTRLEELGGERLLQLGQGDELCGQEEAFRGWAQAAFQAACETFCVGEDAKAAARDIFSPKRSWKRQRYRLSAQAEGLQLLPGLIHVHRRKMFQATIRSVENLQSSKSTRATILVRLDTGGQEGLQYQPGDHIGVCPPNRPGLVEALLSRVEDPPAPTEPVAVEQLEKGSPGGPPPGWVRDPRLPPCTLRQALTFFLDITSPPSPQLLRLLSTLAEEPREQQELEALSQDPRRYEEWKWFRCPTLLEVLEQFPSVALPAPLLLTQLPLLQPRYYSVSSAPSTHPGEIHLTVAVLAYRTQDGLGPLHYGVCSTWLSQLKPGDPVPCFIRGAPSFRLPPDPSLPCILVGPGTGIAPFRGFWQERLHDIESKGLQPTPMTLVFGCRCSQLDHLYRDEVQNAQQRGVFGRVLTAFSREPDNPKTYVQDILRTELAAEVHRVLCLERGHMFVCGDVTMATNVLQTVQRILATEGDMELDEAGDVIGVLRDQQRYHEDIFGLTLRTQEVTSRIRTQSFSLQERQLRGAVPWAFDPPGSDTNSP
eNOS (Rat), sequence (Q62600 2-1202): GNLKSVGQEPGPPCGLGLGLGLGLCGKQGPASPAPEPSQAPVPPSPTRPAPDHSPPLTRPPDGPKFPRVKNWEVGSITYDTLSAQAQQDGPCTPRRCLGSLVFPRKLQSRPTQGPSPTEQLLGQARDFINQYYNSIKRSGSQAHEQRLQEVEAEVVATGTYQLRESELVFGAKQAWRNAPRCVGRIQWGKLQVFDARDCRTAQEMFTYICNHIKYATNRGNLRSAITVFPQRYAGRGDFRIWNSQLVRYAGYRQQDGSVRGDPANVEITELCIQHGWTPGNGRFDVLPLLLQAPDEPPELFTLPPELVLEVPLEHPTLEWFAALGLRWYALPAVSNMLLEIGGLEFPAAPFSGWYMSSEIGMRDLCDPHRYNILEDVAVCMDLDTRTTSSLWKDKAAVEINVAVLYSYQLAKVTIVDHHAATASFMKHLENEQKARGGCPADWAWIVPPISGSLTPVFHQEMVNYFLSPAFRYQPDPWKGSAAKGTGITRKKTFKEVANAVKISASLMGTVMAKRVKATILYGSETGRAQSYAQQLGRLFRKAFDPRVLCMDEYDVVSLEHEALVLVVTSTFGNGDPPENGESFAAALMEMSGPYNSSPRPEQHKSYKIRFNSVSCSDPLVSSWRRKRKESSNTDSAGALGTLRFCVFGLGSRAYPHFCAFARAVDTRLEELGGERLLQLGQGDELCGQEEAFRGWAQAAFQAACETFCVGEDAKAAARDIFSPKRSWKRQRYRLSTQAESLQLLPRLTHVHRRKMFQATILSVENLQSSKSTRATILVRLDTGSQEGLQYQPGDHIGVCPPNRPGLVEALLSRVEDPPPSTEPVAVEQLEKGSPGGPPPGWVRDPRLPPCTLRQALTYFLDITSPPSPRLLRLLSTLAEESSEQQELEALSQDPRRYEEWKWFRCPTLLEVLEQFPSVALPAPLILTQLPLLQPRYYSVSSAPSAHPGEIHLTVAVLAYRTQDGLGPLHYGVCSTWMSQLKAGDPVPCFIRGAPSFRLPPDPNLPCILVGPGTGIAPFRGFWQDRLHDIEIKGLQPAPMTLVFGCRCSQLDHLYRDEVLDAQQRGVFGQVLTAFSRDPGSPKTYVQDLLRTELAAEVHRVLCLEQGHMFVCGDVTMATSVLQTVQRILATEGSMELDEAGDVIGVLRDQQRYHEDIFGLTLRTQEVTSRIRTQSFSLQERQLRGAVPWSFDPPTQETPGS
Recombinant human inducible NOS (iNOS), sequence (P35228 whole entry): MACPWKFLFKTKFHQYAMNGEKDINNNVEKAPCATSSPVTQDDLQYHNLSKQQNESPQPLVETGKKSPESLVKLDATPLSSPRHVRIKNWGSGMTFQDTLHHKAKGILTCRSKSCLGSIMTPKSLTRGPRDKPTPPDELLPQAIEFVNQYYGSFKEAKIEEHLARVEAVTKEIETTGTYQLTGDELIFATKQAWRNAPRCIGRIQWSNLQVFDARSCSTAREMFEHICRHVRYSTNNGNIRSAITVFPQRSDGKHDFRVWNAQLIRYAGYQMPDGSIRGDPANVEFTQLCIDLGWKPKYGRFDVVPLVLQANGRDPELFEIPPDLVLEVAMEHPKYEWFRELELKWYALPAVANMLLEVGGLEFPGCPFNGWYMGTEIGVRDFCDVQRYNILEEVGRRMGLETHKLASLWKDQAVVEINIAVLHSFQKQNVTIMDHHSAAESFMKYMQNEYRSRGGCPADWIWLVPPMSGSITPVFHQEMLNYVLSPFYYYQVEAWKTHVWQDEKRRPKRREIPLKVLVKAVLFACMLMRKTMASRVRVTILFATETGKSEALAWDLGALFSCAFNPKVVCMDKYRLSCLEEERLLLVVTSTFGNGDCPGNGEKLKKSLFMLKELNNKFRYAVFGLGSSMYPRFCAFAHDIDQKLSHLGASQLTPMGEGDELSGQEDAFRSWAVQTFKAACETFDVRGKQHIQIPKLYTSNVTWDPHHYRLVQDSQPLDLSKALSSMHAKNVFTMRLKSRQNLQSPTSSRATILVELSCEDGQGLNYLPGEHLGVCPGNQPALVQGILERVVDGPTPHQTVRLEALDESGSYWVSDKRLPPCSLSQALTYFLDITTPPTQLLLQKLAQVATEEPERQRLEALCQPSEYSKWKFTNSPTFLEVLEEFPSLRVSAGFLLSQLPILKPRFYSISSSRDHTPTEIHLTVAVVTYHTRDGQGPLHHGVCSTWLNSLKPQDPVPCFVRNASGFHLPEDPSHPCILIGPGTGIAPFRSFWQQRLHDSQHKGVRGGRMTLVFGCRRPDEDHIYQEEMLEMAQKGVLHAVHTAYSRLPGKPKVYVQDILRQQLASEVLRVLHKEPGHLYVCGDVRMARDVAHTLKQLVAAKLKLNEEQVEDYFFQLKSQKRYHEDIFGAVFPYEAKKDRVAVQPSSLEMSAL

Compound: CN1CCCC1CCN1CCCc2cc(NC(=N)c3cccs3)ccc21 (single isomer, unassigned) [Example 23, N-(1-(2-(1-Methylpyrrolidin-2-yl)ethyl)-1,2,3,4-tetrahydroquinolin-6-yl)thiophene-2-carboximidamide]
- hindpaw allodynia after inflammatory soup (IS) ([1]; 30 mg/kg p.o. 15 minutes prior to IS): reverses the development of hindpaw allodynia
- IC50 [2, 14]: 41 µM
- Selectivity eNOS/nNOS (rodent data in parentheses) (nNOS (Rat); rodent enzymes): (>434)
- antihyperalgesic effect in the Chung model [3]: clear antihyperalgesic effect
- IC50 (eNOS (Rat)): > 100 µM
- IC50 [4]: > 100 µM
- antiallodynic effect in the Chung model [5]: antiallodynic effect
- Selectivity eNOS/nNOS ([6]; human enzymes, ratio of eNOS IC50 to nNOS IC50): 157
- IC50 [6, 15]: 0.26 µM

- IC50 [2, 14]: 37.7 µM
- IC50 [2]: 58.7 µM
- IC50 (nNOS (Rat); rat nNOS, read-out: nNOS IC50 (rodent data in parentheses)): 0.46 µM
- IC50 (iNOS (Mouse)): > 100 µM
- IC50 (eNOS (Rat)): > 100 µM
- IC50 ([4]; human recombinant iNOS, values without parentheses): 0.85 µM
- IC50 [6, 15]: 0.253 µM
- IC50 [6]: 0.43 µM
Compound: CN(C)CCN1CCCc2cc(NC(=N)c3cccs3)ccc21 [Example 11, N-(1-(2-(dimethylamino)ethyl)-1,2,3,4-tetrahydroquinolin-6-yl)thiophene-2-carboximidamide]
- antihyperalgesic effect in the Chung model [3]: clear antihyperalgesic effect
- tactile hypersensitivity, pre-injection reading on the second drug-administration day ([7]; latent effect of the first dose): sustained reversal of the tactile hypersensitivity
- tactile sensitivity on successive days of administration ([7]; successive days): no further overt effect
- tactile hypersensitivity (von Frey) after first injection ([7]; two and four hours after the first injection): reversed the tactile hypersensitivity
- paw lifts in the cold plate test [8]: approximately nine
- hind paw weight placement 24 hours after the first dose ([9]; 24 hours after the first dose): preferential placement on the contralateral hind paw
- hind paw weight placement on successive days ([9]; drug administration on successive days): shift in hind paw weight placement toward even distribution on each day
- hind paw weight placement, first day ([9]; first day, two hours and four hours after drug administration): shift in weight placement toward even distribution between the two hind paws

Compound: COC(=O)[C@@H](N)CCCNC(=N)N[N+](=O)[O-] [L-NAME, N^G-Nitro-L-arginine methyl ester]
- patient mortality [10]: 27%

Compound: CNC(=N)NCCC[C@H](N)C(=O)O [L-NMMA, N^G-monomethyl-L-arginine]
- hindpaw allodynia after inflammatory soup (IS) ([1]; 10 mg/kg i.v 15 minutes prior to IS): reverses the development of hindpaw allodynia
- response rate (migraine patients [11]): 67%
- survival rate [12]: 72%

Compound: C/C1=C2/[N-][C@H]([C@H](CC(N)=O)[C@@]2(C)CCC(=O)NC[C@@H](C)OP(=O)([O-])O[C@H]2[C@@H](O)[C@@H](n3cnc4cc(C)c(C)cc43)O[C@@H]2CO)[C@]2(C)N=C(/C(C)=C3N=C(/C=C4N=C1[C@@H](CCC(N)=O)C\4(C)C)[C@@H](CCC(N)=O)[C@]\3(C)CC(N)=O)[C@@H](CCC(N)=O)[C@]2(C)CC(N)=O.[Co+3].[OH-] [hydroxycobalamin]
- patients with a reduction in the frequency of migraine attack of 50% (migraine patients [13]): 53%
